Assay results published in the supplement of paper PMC10307832.

Tests used:
Test in all cases: relative viability (nuclei count vs DMSO), 5 days (fraction); higher = more cells survive
[1] = tested on: ChaGo-K-1
Method in brief: (§1)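 Lung cancer cell lines, seeded in 1536-well plates, were treated the following day by pin tool with a single drug or with five library-drug doses (not always all listed) in √10 steps on top of a fixed anchor-drug dose. Cells were fixed and nuclei stained in one step after 5 days, and nuclei were counted. Relative viability is the nuclei count for treated wells divided by that for vehicle wells, reported as medians of duplicate plates.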

[2] = tested on: HCC-44
Method in brief: as §1

[3] = tested on: NCI-H1734
Method in brief: as §1

[4] = tested on: NCI-H2087
Method in brief: as §1

[5] = tested on: NCI-H441
Method in brief: as §1

[6] = tested on: NCI-H838
Method in brief: as §1

[7] = tested on: NCI-H1975
Method in brief: as §1

[8] = tested on: PC-3 [JPC-3]
Method in brief: as §1

[9] = tested on: NCI-H522
Method in brief: as §1

[10] = tested on: NCI-H1355
Method in brief: as §1

[11] = tested on: EMC-BAC-2
Method in brief: as §1

[12] = tested on: HCC-366
Method in brief: as §1

[13] = tested on: HOP-62
Method in brief: as §1

[14] = tested on: HCC-78
Method in brief: as §1

[15] = tested on: NCI-H2347
Method in brief: as §1

[16] = tested on: NCI-H727
Method in brief: as §1

[17] = tested on: NCI-H2126
Method in brief: as §1

[18] = tested on: LC-2-ad
Method in brief: as §1

[19] = tested on: NCI-H1944
Method in brief: as §1

C=C1C(=O)O[C@@H](CCCCCCCC)[C@@H]1C(=O)O [C-75] + NC(=O)Nc1cc(-c2cccc(F)c2)sc1C(=O)N[C@H]1CCCNC1 [AZD7762] (partner 0.2 µM) showed a relative viability ([1]; first compound 0.08 µM) of 0.857, a relative viability ([1]; first compound 0.253 µM) of 0.921 and a relative viability ([1]; first compound 0.8 µM) of 0.777. It also gave a relative viability ([1]; first compound 2.53 µM) of 0.603, a relative viability ([1]; first compound 8 µM) of 0.812 and a relative viability ([2]; first compound 0.08 µM) of 1.03. The relative viability ([2]; first compound 0.253 µM) was 1.05, the relative viability ([2]; first compound 0.8 µM) was 0.999 and the relative viability ([2]; first compound 2.53 µM) was 0.953. It also gave a relative viability ([2]; first compound 8 µM) of 1.08, a relative viability ([3]; first compound 0.08 µM) of 0.562 and a relative viability ([3]; first compound 0.253 µM) of 0.587. For the same molecule, the relative viability ([3]; first compound 0.8 µM) was 0.488, the relative viability ([3]; first compound 2.53 µM) was 0.278 and the relative viability ([3]; first compound 8 µM) was 0.664. The relative viability ([4]; first compound 0.08 µM) was 1.59, the relative viability ([4]; first compound 0.253 µM) was 1.23 and the relative viability ([4]; first compound 0.8 µM) was 1.07. For the same molecule, the relative viability ([4]; first compound 2.53 µM) was 1.3, the relative viability ([4]; first compound 8 µM) was 1.09 and the relative viability ([5]; first compound 0.08 µM) was 1.26. It also gave a relative viability ([5]; first compound 0.253 µM) of 1.3, a relative viability ([5]; first compound 0.8 µM) of 1.05 and a relative viability ([5]; first compound 8 µM) of 1.06. For the same molecule, the relative viability ([6]; first compound 0.08 µM) was 0.89, the relative viability ([6]; first compound 0.253 µM) was 0.752 and the relative viability ([6]; first compound 0.8 µM) was 0.943. It also gave a relative viability ([6]; first compound 2.53 µM) of 0.865, a relative viability ([6]; first compound 8 µM) of 0.891 and a relative viability ([7]; first compound 0.08 µM) of 0.771. The relative viability ([7]; first compound 0.253 µM) was 0.556, the relative viability ([7]; first compound 0.8 µM) was 0.623 and the relative viability ([7]; first compound 2.53 µM) was 0.667. The relative viability ([7]; first compound 8 µM) was 0.78, the relative viability ([8]; first compound 0.08 µM) was 0.845 and the relative viability ([8]; first compound 0.253 µM) was 0.801. For the same molecule, the relative viability ([8]; first compound 0.8 µM) was 0.801, the relative viability ([8]; first compound 2.53 µM) was 0.6 and the relative viability ([8]; first compound 8 µM) was 0.753. The relative viability ([9]; first compound 0.08 µM) was 0.851, the relative viability ([9]; first compound 0.253 µM) was 0.717 and the relative viability ([9]; first compound 0.8 µM) was 0.846. For the same molecule, the relative viability ([9]; first compound 2.53 µM) was 0.855, the relative viability ([9]; first compound 8 µM) was 0.727 and the relative viability ([10]; first compound 0.08 µM) was 0.742. It also gave a relative viability ([10]; first compound 0.253 µM) of 0.831, a relative viability ([10]; first compound 0.8 µM) of 0.738 and a relative viability ([10]; first compound 2.53 µM) of 0.663. The relative viability ([10]; first compound 8 µM) was 0.764, the relative viability ([11]; first compound 0.08 µM) was 1.1 and the relative viability ([11]; first compound 0.253 µM) was 1.04. The relative viability ([11]; first compound 0.8 µM) was 1.06, the relative viability ([11]; first compound 2.53 µM) was 0.887 and the relative viability ([11]; first compound 8 µM) was 1.07. It also gave a relative viability ([12]; first compound 0.08 µM) of 0.271, a relative viability ([12]; first compound 0.253 µM) of 0.306 and a relative viability ([12]; first compound 0.8 µM) of 0.227. The relative viability ([12]; first compound 2.53 µM) was 0.152, the relative viability ([12]; first compound 8 µM) was 0.52 and the relative viability ([13]; first compound 0.08 µM) was 0.592. It also gave a relative viability ([13]; first compound 0.253 µM) of 1.09, a relative viability ([13]; first compound 0.8 µM) of 0.522 and a relative viability ([13]; first compound 2.53 µM) of 0.657. The relative viability ([13]; first compound 8 µM) was 0.91, the relative viability ([14]; first compound 0.08 µM) was 0.584 and the relative viability ([14]; first compound 0.253 µM) was 0.409. The relative viability ([14]; first compound 0.8 µM) was 0.579, the relative viability ([14]; first compound 8 µM) was 0.72 and the relative viability ([15]; first compound 0.08 µM) was 0.725. For the same molecule, the relative viability ([15]; first compound 0.253 µM) was 1, the relative viability ([15]; first compound 0.8 µM) was 0.715 and the relative viability ([15]; first compound 2.53 µM) was 0.705. The relative viability ([15]; first compound 8 µM) was 0.665, the relative viability ([16]; first compound 0.08 µM) was 0.694 and the relative viability ([16]; first compound 0.253 µM) was 0.906. For the same molecule, the relative viability ([16]; first compound 0.8 µM) was 0.4, the relative viability ([16]; first compound 2.53 µM) was 0.587 and the relative viability ([16]; first compound 8 µM) was 0.388. The relative viability ([17]; first compound 0.08 µM) was 0.953, the relative viability ([17]; first compound 0.253 µM) was 1.13 and the relative viability ([17]; first compound 0.8 µM) was 0.965. For the same molecule, the relative viability ([17]; first compound 2.53 µM) was 0.886, the relative viability ([17]; first compound 8 µM) was 1.01 and the relative viability ([18]; first compound 0.08 µM) was 0.833. For the same molecule, the relative viability ([18]; first compound 0.253 µM) was 0.813, the relative viability ([18]; first compound 0.8 µM) was 0.819 and the relative viability ([18]; first compound 2.53 µM) was 0.728. For the same molecule, the relative viability ([18]; first compound 8 µM) was 0.853, the relative viability ([19]; first compound 0.08 µM) was 0.566 and the relative viability ([19]; first compound 0.253 µM) was 0.648. The relative viability ([19]; first compound 0.8 µM) was 0.381, the relative viability ([19]; first compound 2.53 µM) was 0.621 and the relative viability ([19]; first compound 8 µM) was 0.517.
